This passage reports inhibition results from doi:10.1101/2022.01.05.475095v1 (biorxiv, 2022).

The term inhibition denotes the relative decrease from the control value, in per cent.

SMILES strings stand for the structures.

The target of the first experiment is T1, SARS-CoV-2 PLpro (Severe acute respiratory syndrome coronavirus 2, UniProt P0DTD1). Nature of the experiment: fluorogenic Z-RLRGG-AMC cleavage assay. Type of experiment: biochemical. The following applies: read-out: % inhibition at 10 μM.
As to `CC(=O)NC1=CC(=O)c2c(cccc2[N+](=O)[O-])C1=O` [compound 415, 415], the inhibition at 10 µM is 63 ± 9%. Still for that read-out and setting: under `Cc1ccc(S(=O)(=O)n2cc(CNC3=CC(=O)c4ccccc4C3=O)nn2)cc1` [compound 319, 319] stands 69 ± 3%. In the case of `Cc1ccc(S(=O)(=O)n2cc(CN(C3=CC(=O)c4ccccc4C3=O)c3ccc(Br)cc3)nn2)cc1` [compound 314, 314], the inhibition at 10 µM was 55 ± 7%.

Another experiment addresses T1, SARS-CoV-2 PLpro. As to the kind of experiment: biochemical. The following applies: read-out: PLpro % inhibition at 10 µM.
Consider `O=C1C(Sc2ccccc2)=C(Sc2ccccc2)C(=O)c2ccccc21` [compound 379], for which the inhibition at 10 µM is 0%. Turning to `COc1ccc(SC2=C(Sc3ccc(OC)cc3)C(=O)c3ccccc3C2=O)cc1` [compound 382], the inhibition at 10 µM was found to be 0%.

Consider `CC1(C)OC2=C(C(=O)C(=O)c3ccccc32)C1n1cc(CNC2=CC(=O)c3ccccc3C2=O)nn1` (stereo not shown) [compound 189], for which the inhibition at 10 µM turned out to be 100%. On the same count and under the same terms, under `CC1(C)OC2=C(CC1Br)C(=O)C(=NNc1ccccc1)c1ccccc12` (stereo not shown) [compound 666, 666] stands 0%; under `CC1(C)OC2=C(C(=O)C(=O)c3ccccc32)C1n1cc(-c2ccccc2)nn1` (stereo not shown) [compound 159], 100 ± 1%; under `Cc1ccc(S(=O)(=O)n2cc(CNC3=C(Br)C(=O)c4ccccc4C3=O)nn2)cc1` [compound 321, 321], 17 ± 0.2%.

As for `Cc1ccc(S(=O)(=O)c2cccc3c2C(=O)c2ccccc2C3=O)cc1` [compound 477, 477], the inhibition at 10 µM amounted to 0%.

`Cc1ccc(S(=O)(=O)n2cc(CNC3=C(Cl)C(=O)c4ccccc4C3=O)nn2)cc1` [compound 320, 320]: the inhibition at 10 µM turned out to be 31 ± 6%. Same read-out and setting: under `CC1(C)CC2=C(O1)c1ccccc1C(=NNc1ccccc1)C2=O` [compound 673, 673] stands 4 ± 4%; under `CC(=O)c1ccc(N(Cc2cn(S(=O)(=O)c3ccc(C)cc3)nn2)C2=CC(=O)c3ccccc3C2=O)cc1` [compound 318], 9 ± 5%; under `CC(=O)NC1=CC(=O)c2cccc(O)c2C1=O` [compound 414, 414], 38 ± 2%.

As to `O=C1C(Sc2ccc(Br)cc2)=C(Sc2ccc(Br)cc2)C(=O)c2ccccc21` [compound 380, 380], the inhibition at 10 µM is 12 ± 6%. Still for that read-out and setting: in the case of `CC1(C)OC2=C(C(=O)C(=O)c3ccccc32)C1n1cc(CNC2=C(Br)C(=O)c3ccccc3C2=O)nn1` (stereo not shown) [compound 191] it was 93 ± 0.7%.
